According to PMC11149917, “Translational and Therapeutic Evaluation of RAS-GTP Inhibition by RMC-6236 in RAS-Driven Cancers” (Cancer Discovery, 2024):
Where two headings read alike, the source gives them in different places.

Test: Mouse blood and tissue PK (LC/MS-MS)
Format: in vivo
Details: mouse; for concentration at 2 h / concentration at 24 h / concentration at 4 h / concentration at 8 h / concentration at 48 h / Kp: oral; for concentration at 2 h / concentration at 24 h / concentration at 4 h / concentration at 8 h / concentration at 48 h: read-out: RMC-6236 (nM) Tumor; for Kp: tumor relative to whole blood, read-out: Tumor/Blood AUC Ratio; for AUC(0-t): read-out: Blood AUClast
Method: For single-dose PKPD study, mice were randomized and assigned into groups (n = 3/dose/time point). […] Blood and tissues, including the tumor, brain, colon, ear skin, and muscle, were harvested at indicated time points. […] The whole blood, tumor, brain, colon, and ear skin concentrations of RMC-6236 were determined using liquid chromatography–tandem mass spectrometry (LC/MS-MS) methods. […] After thorough mixing and centrifugation, the supernatant was diluted with water or directly analyzed on a Sciex 5500 or Sciex 6500+ triple quadrupole mass spectrometer equipped with an ACQUITY or Shimadzu UPLC system. […] Bioanalysis on blood and tissue samples from xenograft models was run at Pharmaron and Wuxi AppTec. Concentrations reported as below the quantification limit were treated as zero for PK analysis. PK parameters were calculated by noncompartmental analysis of the concentration–time profiles using Phoenix WinNonLin (version 8.3 Certara). Apparent terminal elimination half-life (t1/2) values were calculated as ln(2)/k, where k represents the terminal elimination rate constant. Area under the concentration–time curve (AUC) values were estimated using a linear trapezoidal method. AUClast values were calculated from the dosing time to the last quantifiable concentration. Maximum concentration (Cmax) was recorded as observed.

[1] = BALB/c nude, ear skin, 3 mg/kg, sheet Ear Skin, model Capan-2, study Capan-2 #3_PHA 2023, 3 mg/kg
[2] = BALB/c nude, ear skin, 10 mg/kg, sheet Ear Skin, model Capan-2, study Capan-2 #3_PHA 2023, 10 mg/kg
[3] = BALB/c nude, ear skin, 25 mg/kg, sheet Ear Skin, model Capan-2, study Capan-2 #3_PHA 2023, 25 mg/kg
[4] = BALB/c nude, ear skin, 50 mg/kg, sheet Ear Skin, model Capan-2, study Capan-2 #3_PHA 2023, 50 mg/kg
[5] = BALB/c nude, ear skin, 100 mg/kg, sheet Ear Skin, model Capan-2, study Capan-2 #3_PHA 2023, 100 mg/kg
[6] = BALB/c nude, tumor, 0.3 mg/kg, Capan-2, study Capan-2 #3_PHA 2020, 0.3 mg/kg
[7] = BALB/c nude, tumor, 3 mg/kg, Capan-2, study Capan-2 #3_PHA 2020, 3 mg/kg
[8] = BALB/c nude, tumor, 3 mg/kg, Capan-2, study Capan-2 #3_PHA 2023, 3 mg/kg
[9] = BALB/c nude, tumor, 10 mg/kg, Capan-2, study Capan-2 #3_PHA 2020, 10 mg/kg
[10] = BALB/c nude, tumor, 10 mg/kg, Capan-2, study Capan-2 #3_PHA 2023, 10 mg/kg
[11] = BALB/c nude, tumor, 10 mg/kg, sheet colon, Capan-2, Capan-2 #3_PHA 2023, 10 mg/kg
[12] = BALB/c nude, tumor, 25 mg/kg, Capan-2, study Capan-2 #3_PHA 2020, 25 mg/kg
[13] = BALB/c nude, tumor, 25 mg/kg, Capan-2, study Capan-2 #3_PHA 2023, 25 mg/kg
[14] = BALB/c nude, tumor, 25 mg/kg, sheet colon, Capan-2, Capan-2 #3_PHA 2023, 25 mg/kg
[15] = BALB/c nude, tumor, 40 mg/kg, Capan-2, study Capan-2 #3_PHA 2020, 40 mg/kg
[16] = BALB/c nude, tumor, 50 mg/kg, Capan-2, study Capan-2 #3_PHA 2023, 50 mg/kg
[17] = BALB/c nude, tumor, 50 mg/kg, sheet colon, Capan-2, Capan-2 #3_PHA 2023, 50 mg/kg
[18] = BALB/c nude, tumor, 100 mg/kg, Capan-2, study Capan-2 #3_PHA 2023, 100 mg/kg
[19] = BALB/c nude, tumor, 100 mg/kg, sheet colon, Capan-2, Capan-2 #3_PHA 2023, 100 mg/kg
[20] = BALB/c nude, whole blood, po, 3 mg/kg, Capan-2 (3 mg/kg), single dose
[21] = BALB/c nude, whole blood, po, 10 mg/kg, Capan-2 (10 mg/kg), single dose
[22] = BALB/c nude, whole blood, po, 25 mg/kg, Capan-2 (25 mg/kg), single dose
[23] = Balb/c nude, whole blood, po, 25 mg/kg, LU99-luc IC #2 (25 mg/kg), single dose

CCn1c(-c2cc(N3CCN(C)CC3)cnc2[C@H](C)OC)c2c3cc(ccc31)-c1csc(n1)C[C@H](NC(=O)[C@H]1C[C@@H]1C)C(=O)N1CCC[C@H](N1)C(=O)OCC(C)(C)C2 [RMC-6236]
concentration at 2 h (BALB/c nude, colon, 3 mg/kg, sheet colon, Capan-2, Capan-2 #3_PHA 2023, 3 mg/kg): 1370 nM
concentration at 2 h (BALB/c nude, colon, 25 mg/kg, sheet colon, Capan-2, Capan-2 #3_PHA 2023, 25 mg/kg): 5810 nM
concentration at 24 h (BALB/c nude, colon, 50 mg/kg, sheet colon, Capan-2, Capan-2 #3_PHA 2023, 50 mg/kg): 147 nM
concentration at 24 h (BALB/c nude, colon, 100 mg/kg, sheet colon, Capan-2, Capan-2 #3_PHA 2023, 100 mg/kg): 531 nM
concentration at 2 h [1]: 175 nM
concentration at 4 h [1]: 255 nM
concentration at 8 h [1]: 195 nM
concentration at 24 h [1]: 48.3 nM
concentration at 2 h [2]: 469 nM
concentration at 4 h [2]: 883 nM
concentration at 8 h [2]: 1080 nM
concentration at 24 h [2]: 219 nM
concentration at 48 h [2]: 41.6 nM
concentration at 2 h [3]: 1640 nM
concentration at 4 h [3]: 2370 nM
concentration at 8 h [3]: 1360 nM
concentration at 24 h [3]: 512 nM
concentration at 48 h [3]: 147 nM
concentration at 2 h [4]: 5540 nM
concentration at 4 h [4]: 7670 nM
concentration at 8 h [4]: 4410 nM
concentration at 24 h [4]: 1110 nM
concentration at 48 h [4]: 276 nM
concentration at 2 h [5]: 12300 nM
concentration at 8 h [5]: 6560 nM
concentration at 24 h [5]: 2500 nM
Kp (BALB/c nude, 3 mg/kg, Capan-2 (3 mg/kg), single dose): 3.3
Kp (BALB/c nude, 10 mg/kg, Capan-2 (10 mg/kg), single dose): 4.6
Kp (BALB/c nude, 25 mg/kg, Capan-2 (25 mg/kg), single dose): 5.8
concentration at 2 h [6]: 15.2 nM
concentration at 8 h [6]: 14.8 nM
concentration at 24 h [6]: 5.5 nM
concentration at 2 h [7]: 314 nM
concentration at 8 h [7]: 136 nM
concentration at 24 h [7]: 67 nM
concentration at 48 h [7]: 22 nM
concentration at 2 h [8]: 148 nM
concentration at 4 h [8]: 290 nM
concentration at 8 h [8]: 231 nM
concentration at 24 h [8]: 109 nM
concentration at 48 h [8]: 48.6 nM
concentration at 8 h (BALB/c nude, tumor, 3 mg/kg, sheet colon, Capan-2, Capan-2 #3_PHA 2023, 3 mg/kg): 567 nM
concentration at 2 h [9]: 671 nM
concentration at 8 h [9]: 829 nM
concentration at 24 h [9]: 406 nM
concentration at 48 h [9]: 101 nM
concentration at 2 h [10]: 630 nM
concentration at 4 h [10]: 1230 nM
concentration at 8 h [10]: 1120 nM
concentration at 24 h [10]: 563 nM
concentration at 48 h [10]: 142 nM
concentration at 4 h [11]: 3110 nM
concentration at 8 h [11]: 1860 nM
concentration at 24 h [11]: 40.6 nM
concentration at 2 h [12]: 2200 nM
concentration at 8 h [12]: 2400 nM
concentration at 24 h [12]: 1250 nM
concentration at 2 h [13]: 2210 nM
concentration at 4 h [13]: 3050 nM
concentration at 8 h [13]: 2290 nM
concentration at 24 h [13]: 1130 nM
concentration at 4 h [14]: 6440 nM
concentration at 8 h [14]: 3260 nM
concentration at 2 h [15]: 3660 nM
concentration at 8 h [15]: 3360 nM
concentration at 24 h [15]: 1740 nM
concentration at 2 h [16]: 4650 nM
concentration at 4 h [16]: 5600 nM
concentration at 8 h [16]: 5310 nM
concentration at 24 h [16]: 2520 nM
concentration at 2 h [17]: 21800 nM
concentration at 4 h [17]: 10600 nM
concentration at 2 h [18]: 10400 nM
concentration at 4 h [18]: 17300 nM
concentration at 8 h [18]: 7500 nM
concentration at 24 h [18]: 4270 nM
concentration at 48 h [18]: 1150 nM
concentration at 2 h [19]: 25300 nM
concentration at 4 h [19]: 30100 nM
half-life (BALB/c nude, tumor, po, 3 mg/kg, Capan-2 (3 mg/kg), single dose, read-out: Tumor t1/2 (converted)): 16.6 h
half-life (BALB/c nude, tumor, po, 10 mg/kg, Capan-2 (10 mg/kg), single dose, read-out: Tumor t1/2 (converted)): 15.7 h
half-life (BALB/c nude, tumor, po, 25 mg/kg, Capan-2 (25 mg/kg), single dose, read-out: Tumor t1/2 (converted)): 14 h
Cmax [20]: 252 ng/mL
AUC(0-t) [20]: 1560 ng·h/mL
Cmax [21]: 950 ng/mL
AUC(0-t) [21]: 5090 ng·h/mL
half-life (BALB/c nude, whole blood, po, 10 mg/kg, Capan-2 (10 mg/kg), single dose, read-out: Blood t1/2 (converted)): 3.77 h
Cmax [22]: 2920 ng/mL
AUC(0-t) [22]: 11600 ng·h/mL
half-life (BALB/c nude, whole blood, po, 25 mg/kg, Capan-2 (25 mg/kg), single dose, read-out: Blood t1/2 (converted)): 2.77 h
half-life (Balb/c nude, tumor (intracranial), po, 25 mg/kg, LU99-luc IC (25 mg/kg), intracranial tumor, read-out: Tumor t1/2 (converted)): 16.1 h
half-life (Balb/c nude, tumor (subcutaneous xenograft), sc, 25 mg/kg, LU99-luc SC (25 mg/kg), subcutaneous xenograft tumor, read-out: Tumor t1/2 (converted)): 25.3 h
Cmax [23]: 2020 ng/mL
AUC(0-t) [23]: 14000 ng·h/mL
Cmax (Balb/c nude, whole blood, po, 25 mg/kg, LU99-luc IC (25 mg/kg), single dose): 2500 ng/mL
